Test results: patent US20240132484A1, “BROAD SPECTRUM ANTIVIRAL COMPOUNDS TARGETING THE SKI COMPLEX” (priority 2020, published 2024)
Where “and” joins values, the source holds several entries; their conditions need not be identical. Identical values can stand only once. Entries after “also recorded” stand apart in the source; their conditions may differ. Like-named read-outs stand apart in the source and are kept apart here.

Tests used:
SARS2 = format: cell-based, SARS-CoV-2; settings: for Percentage Infection Relative to Appropriate DMSO Control with Avg Background Subtraction: Nunc Celigo plates; for Percentage Inhibition Average 1 μM / Screening data (Relative infection to DMSO controls) Average 1 μM: SARS2, 1 μM; for Screening data (Relative infection to DMSO controls) Average 1 μM / Screening data (Relative infection to DMSO controls) Average 5 μM / Screening data (Relative infection to DMSO controls) Average 10 μM / Screening data (Relative infection to DMSO controls) Average 25 μM / Screening data (Relative infection to DMSO controls) Average 50 μM / Average (relative infection to DMSO over the 5 tested concentrations): 100=DMSO control; for Percentage Inhibition Average 5 μM / Screening data (Relative infection to DMSO controls) Average 5 μM: SARS2, 5 μM; for Percentage Inhibition Average 10 μM / Screening data (Relative infection to DMSO controls) Average 10 μM: SARS2, 10 μM; for Percentage Inhibition Average 25 μM / Screening data (Relative infection to DMSO controls) Average 25 μM: SARS2, 25 μM; for Percentage Inhibition Average 50 μM / Screening data (Relative infection to DMSO controls) Average 50 μM: SARS2, 50 μM; for Average (relative infection to DMSO over the 5 tested concentrations): SARS2, average over 1 to 50 uM; for Infection Data, Average, Mean: average of Exp 1-2 (SMW491, SMW492); for Infection Data, Average, Mean percentage infection relative to DMSO control: Average of Exp 1 (SMW506) and Exp 2 (SMW507); for Infection Data, Percentage Infection Relative to Appropriate DMSO Control: single well, avg background subtraction
cells (nuclei count) = settings: for Relative cell count to DMSO controls, Average 1 μM / Relative cell count to DMSO controls, Average 5 μM / Relative cell count to DMSO controls, Average 10 μM / Relative cell count to DMSO controls, Average 25 μM / Relative cell count to DMSO controls, Average 50 μM: toxicity data, 100=DMSO control; for Toxicity Data, Average, Mean percentage relative to DMSO control: Average of Exp 1 (SMW491) and Exp 2 (SMW492); for Relative cell count to DMSO controls, Average (for correlation analysis): average value over the 5 tested concentrations (1 to 50 uM); for Toxicity Data, Average, Mean (percentage relative to appropriate DMSO control): average of Exp 1 and Exp 2, n=4; for Toxicity Data, Percentage Relative to Appropriate DMSO Control: single well

In the case of COc1ccc(CNCCc2ccccc2F)c(OCC(O)CN2CCN(C)CC2)c1 (racemic) [SILCS41], the “SARS2 antiviral activity” value (SARS2) is reported as “better activity than the original compound; also recorded: improved properties over UMB18g”, the “Percentage Infection Relative to Appropriate DMSO Control with Avg Background Subtraction” value (SARS2; Exp 1 (SMW491), 1 uM) is reported as 92.14% and 78.53% and the “Percentage Infection Relative to Appropriate DMSO Control with Avg Background Subtraction” value (SARS2; Exp 1 (SMW491), 5 uM) is reported as 20.40% and 20.73%. The “Percentage Infection Relative to Appropriate DMSO Control with Avg Background Subtraction” value (SARS2; Exp 1 (SMW491), 10 uM) was 2.55% and 1.51%, the “Percentage Infection Relative to Appropriate DMSO Control with Avg Background Subtraction” value (SARS2; Exp 1 (SMW491), 25 uM) was 2.26% and 4.77% and the “Percentage Infection Relative to Appropriate DMSO Control with Avg Background Subtraction” value (SARS2; Exp 1 (SMW491), 50 uM) was 5.27% and 3.84%. The “Percentage Infection Relative to Appropriate DMSO Control with Avg Background Subtraction” value (SARS2; Exp 2 (SMW492), 1 uM) was 11.86% and 10.73%, the “Percentage Infection Relative to Appropriate DMSO Control with Avg Background Subtraction” value (SARS2; Exp 2 (SMW492), 5 uM) was 15.34% and 12.91% and the “Percentage Infection Relative to Appropriate DMSO Control with Avg Background Subtraction” value (SARS2; Exp 2 (SMW492), 10 uM) was 1.08% and 2.35%. The “Percentage Infection Relative to Appropriate DMSO Control with Avg Background Subtraction” value (SARS2; Exp 2 (SMW492), 25 uM) was 1.58% and 3.10%, the “Percentage Infection Relative to Appropriate DMSO Control with Avg Background Subtraction” value (SARS2; Exp 2 (SMW492), 50 uM) was 8.27% and 6.25% and the “Percentage Inhibition Average 1 μM” value (SARS2) was 51.68%. For the same compound, the “Screening data (Relative infection to DMSO controls) Average 1 μM” value (SARS2) was 48.32, the “Percentage Inhibition Average 5 μM” value (SARS2) was 82.65% and the “Screening data (Relative infection to DMSO controls) Average 5 μM” value (SARS2) was 17.35. For the same compound, the “Percentage Inhibition Average 10 μM” value (SARS2) was 98.13%, the “Screening data (Relative infection to DMSO controls) Average 10 μM” value (SARS2) was 1.87 and the “Percentage Inhibition Average 25 μM” value (SARS2) was 97.07%. The “Screening data (Relative infection to DMSO controls) Average 25 μM” value (SARS2) was 2.93, the “Percentage Inhibition Average 50 μM” value (SARS2) was 94.09% and the “Screening data (Relative infection to DMSO controls) Average 50 μM” value (SARS2) was 5.91. For the same compound, the “Average (relative infection to DMSO over the 5 tested concentrations)” value (SARS2) was 15.28, the “Infection Data, Average, Mean” value (SARS2; n 4, 1 uM) was 48.32% and the “Infection Data, Average, Mean” value (SARS2; n 4, 5 uM) was 17.35%. The “Infection Data, Average, Mean” value (SARS2; n 4, 10 uM) was 1.87%, the “Infection Data, Average, Mean” value (SARS2; n 4, 25 uM) was 2.93% and the “Infection Data, Average, Mean” value (SARS2; n 4, 50 uM) was 5.91%. The “Relative cell count to DMSO controls, Average 1 μM” value (cells (nuclei count)) was 118.33, the “Relative cell count to DMSO controls, Average 5 μM” value (cells (nuclei count)) was 139.55 and the “Relative cell count to DMSO controls, Average 10 μM” value (cells (nuclei count)) was 124.03. For the same compound, the “Relative cell count to DMSO controls, Average 25 μM” value (cells (nuclei count)) was 118.34, the “Relative cell count to DMSO controls, Average 50 μM” value (cells (nuclei count)) was 101.49 and the “Toxicity Data, Average, Mean percentage relative to DMSO control” value (cells (nuclei count); n=4, 1 uM) was 118.33%. For the same compound, the “Toxicity Data, Average, Mean percentage relative to DMSO control” value (cells (nuclei count); n=4, 5 uM) was 139.55%, the “Toxicity Data, Average, Mean percentage relative to DMSO control” value (cells (nuclei count); n=4, 10 uM) was 124.03% and the “Toxicity Data, Average, Mean percentage relative to DMSO control” value (cells (nuclei count); n=4, 25 uM) was 118.34%. The “Toxicity Data, Average, Mean percentage relative to DMSO control” value (cells (nuclei count); n=4, 50 uM) was 101.49% and the “Relative cell count to DMSO controls, Average (for correlation analysis)” value (cells (nuclei count)) was 120.35.

COc1ccc(CNCCc2ccccc2F)c(OCC(O)CN2CCOCC2)c1 (stereo not shown) [SILCS49] was tested, and the “Infection Data, Average, Mean percentage infection relative to DMSO control” value (SARS2; n=4, 1 uM) was 90.24%, the “Infection Data, Average, Mean percentage infection relative to DMSO control” value (SARS2; n=4, 5 uM) was 54.75% and the “Infection Data, Average, Mean percentage infection relative to DMSO control” value (SARS2; n=4, 10 uM) was 29.10%. The “Infection Data, Average, Mean percentage infection relative to DMSO control” value (SARS2; n=4, 25 uM) was 27.11%, the “Infection Data, Average, Mean percentage infection relative to DMSO control” value (SARS2; n=4, 50 uM) was 13.54% and the “Infection Data, Percentage Infection Relative to Appropriate DMSO Control” value (SARS2; Exp 1 (SMW506), 1 uM) was 101.13% and 94.70%. For the same compound, the “Infection Data, Percentage Infection Relative to Appropriate DMSO Control” value (SARS2; Exp 1 (SMW506), 5 uM) was 55.30% and 50.40%, the “Infection Data, Percentage Infection Relative to Appropriate DMSO Control” value (SARS2; Exp 1 (SMW506), 10 uM) was 38.04% and 34.18% and the “Infection Data, Percentage Infection Relative to Appropriate DMSO Control” value (SARS2; Exp 1 (SMW506), 25 uM) was 27.25% and 33.31%. For the same compound, the “Infection Data, Percentage Infection Relative to Appropriate DMSO Control” value (SARS2; Exp 1 (SMW506), 50 uM) was 9.17% and 7.35%, the “Infection Data, Percentage Infection Relative to Appropriate DMSO Control” value (SARS2; Exp 2 (SMW507), 1 uM) was 67.31% and 97.84% and the “Infection Data, Percentage Infection Relative to Appropriate DMSO Control” value (SARS2; Exp 2 (SMW507), 5 uM) was 52.91% and 60.38%. For the same compound, the “Infection Data, Percentage Infection Relative to Appropriate DMSO Control” value (SARS2; Exp 2 (SMW507), 10 uM) was 23.33% and 20.87%, the “Infection Data, Percentage Infection Relative to Appropriate DMSO Control” value (SARS2; Exp 2 (SMW507), 25 uM) was 29.98% and 17.91% and the “Infection Data, Percentage Infection Relative to Appropriate DMSO Control” value (SARS2; Exp 2 (SMW507), 50 uM) was 19.58% and 18.05%. For the same compound, the “Percentage Inhibition Average 1 μM” value (SARS2) was 9.76%, the “Screening data (Relative infection to DMSO controls) Average 1 μM” value (SARS2) was 90.24 and the “Percentage Inhibition Average 5 μM” value (SARS2) was 45.25%. For the same compound, the “Screening data (Relative infection to DMSO controls) Average 5 μM” value (SARS2) was 54.75, the “Percentage Inhibition Average 10 μM” value (SARS2) was 70.90% and the “Screening data (Relative infection to DMSO controls) Average 10 μM” value (SARS2) was 29.10. The “Percentage Inhibition Average 25 μM” value (SARS2) was 72.89%, the “Screening data (Relative infection to DMSO controls) Average 25 μM” value (SARS2) was 27.11 and the “Percentage Inhibition Average 50 μM” value (SARS2) was 86.46%. The “Screening data (Relative infection to DMSO controls) Average 50 μM” value (SARS2) was 13.54, the “Average (relative infection to DMSO over the 5 tested concentrations)” value (SARS2) was 42.95 and the “Toxicity Data, Average, Mean (percentage relative to appropriate DMSO control)” value (cells (nuclei count); 1 uM) was 104.43%. For the same compound, the “Relative cell count to DMSO controls, Average 1 μM” value (cells (nuclei count)) was 104.43, the “Toxicity Data, Average, Mean (percentage relative to appropriate DMSO control)” value (cells (nuclei count); 5 uM) was 113.44% and the “Relative cell count to DMSO controls, Average 5 μM” value (cells (nuclei count)) was 113.44. For the same compound, the “Toxicity Data, Average, Mean (percentage relative to appropriate DMSO control)” value (cells (nuclei count); 10 uM) was 120.89%, the “Relative cell count to DMSO controls, Average 10 μM” value (cells (nuclei count)) was 120.89 and the “Toxicity Data, Average, Mean (percentage relative to appropriate DMSO control)” value (cells (nuclei count); 25 uM) was 115.31%. The “Relative cell count to DMSO controls, Average 25 μM” value (cells (nuclei count)) was 115.31, the “Toxicity Data, Average, Mean (percentage relative to appropriate DMSO control)” value (cells (nuclei count); 50 uM) was 98.89% and the “Relative cell count to DMSO controls, Average 50 μM” value (cells (nuclei count)) was 98.89. For the same compound, the “Toxicity Data, Percentage Relative to Appropriate DMSO Control” value (cells (nuclei count); Exp 1 (SMW506), 1 uM) was 91% and 100%, the “Toxicity Data, Percentage Relative to Appropriate DMSO Control” value (cells (nuclei count); Exp 1 (SMW506), 5 uM) was 103% and 110% and the “Toxicity Data, Percentage Relative to Appropriate DMSO Control” value (cells (nuclei count); Exp 1 (SMW506), 10 uM) was 111% and 115%. For the same compound, the “Toxicity Data, Percentage Relative to Appropriate DMSO Control” value (cells (nuclei count); Exp 1 (SMW506), 25 uM) was 109% and 115%, the “Toxicity Data, Percentage Relative to Appropriate DMSO Control” value (cells (nuclei count); Exp 1 (SMW506), 50 uM) was 97% and 101% and the “Toxicity Data, Percentage Relative to Appropriate DMSO Control” value (cells (nuclei count); Exp 2 (SMW507), 1 uM) was 111% and 116%. The “Toxicity Data, Percentage Relative to Appropriate DMSO Control” value (cells (nuclei count); Exp 2 (SMW507), 5 uM) was 115% and 126%, the “Toxicity Data, Percentage Relative to Appropriate DMSO Control” value (cells (nuclei count); Exp 2 (SMW507), 10 uM) was 124% and 133% and the “Toxicity Data, Percentage Relative to Appropriate DMSO Control” value (cells (nuclei count); Exp 2 (SMW507), 25 uM) was 112% and 125%. For the same compound, the “Toxicity Data, Percentage Relative to Appropriate DMSO Control” value (cells (nuclei count); Exp 2 (SMW507), 50 uM) was 91% and 107% and the “Relative cell count to DMSO controls, Average (for correlation analysis)” value (cells (nuclei count)) was 110.59.
